According to ChEMBL document CHEMBL1811841 (Bioorg Med Chem, 2011):

Legend:
[1] = target: T1, Melatonin receptor type 1B (Homo sapiens, UniProt P49286); assay: Displacement of 2-[125I]iodomelatonin from human cloned MT2 receptor expressed in mouse NIH-3T3 cell membrane; type: cell membranes, NIH3T3
T1 sequence (P49286 whole entry): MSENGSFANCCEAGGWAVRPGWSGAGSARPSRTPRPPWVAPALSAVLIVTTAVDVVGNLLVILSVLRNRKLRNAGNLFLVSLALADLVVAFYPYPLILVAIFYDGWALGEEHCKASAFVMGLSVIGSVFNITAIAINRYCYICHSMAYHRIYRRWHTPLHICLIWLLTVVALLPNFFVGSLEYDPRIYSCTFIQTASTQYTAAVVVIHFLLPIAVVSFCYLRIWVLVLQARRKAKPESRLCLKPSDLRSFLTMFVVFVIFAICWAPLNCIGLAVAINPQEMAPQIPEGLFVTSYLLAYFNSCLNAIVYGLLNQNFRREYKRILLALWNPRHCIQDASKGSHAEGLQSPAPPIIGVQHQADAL

[2] = target: T2, Melatonin receptor type 1A (Homo sapiens, UniProt P48039); assay: Intrinsic activity at human cloned MT1 receptor expressed in mouse NIH-3T3 cells assessed as stimulation of [35S]GTPgammaS binding relative to melatonin; type: functional, cell-based; conditions: NIH3T3
T2 sequence (P48039 whole entry): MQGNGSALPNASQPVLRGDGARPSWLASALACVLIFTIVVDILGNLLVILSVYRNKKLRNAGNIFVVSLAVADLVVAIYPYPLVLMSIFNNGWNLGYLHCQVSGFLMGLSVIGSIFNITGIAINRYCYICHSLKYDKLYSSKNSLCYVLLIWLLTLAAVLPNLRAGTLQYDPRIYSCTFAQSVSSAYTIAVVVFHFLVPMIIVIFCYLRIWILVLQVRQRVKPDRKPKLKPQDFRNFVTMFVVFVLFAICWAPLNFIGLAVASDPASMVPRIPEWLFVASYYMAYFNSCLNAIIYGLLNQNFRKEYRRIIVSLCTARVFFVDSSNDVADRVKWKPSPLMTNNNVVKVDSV

[3] = target: T2, Melatonin receptor type 1A; assay: Displacement of 2-[125I]iodomelatonin from human cloned MT1 receptor expressed in mouse NIH-3T3 cell membrane; type: cell membranes, NIH3T3
[4] = target: T3, Melatonin receptor type 1B (Homo sapiens) (UniProt P49286); assay: Intrinsic activity at human cloned MT2 receptor expressed in mouse NIH-3T3 cells assessed as stimulation of [35S]GTPgammaS binding relative to melatonin; type: functional, cell-based; conditions: NIH3T3
T3 sequence (whole entry): T1 sequence (P49286 whole entry)

[5] = species on record: Homo sapiens; assay: Selectivity index, ratio of Ki for human cloned MT2 receptor to Ki for human cloned MT1 receptor

| Ki [1] [nM] | Intrinsic activity [2] | Ki [3] [nM] | Intrinsic activity [4] | Ratio Ki [5] | Compound |
| --- | --- | --- | --- | --- | --- |
| 1000 | 0.21 | 42.7 | 0.18 | 23 | CC(=O)NCCN(C)c1cccc(OCCCCOc2cccc(N(C)CCNC(C)=O)c2)c1 |
| 245 | 0.94 | 288 | 0.91 | 0.85 | COc1cccc(N(CCNC(C)=O)C(=O)CCCCC(=O)N(CCNC(C)=O)c2cccc(OC)c2)c1 |
| 93.3 | 0.47 | 20 | 0.38 | 4.7 | CC(=O)NCCN(C)c1cccc(OCCCCCCCCOc2cccc(N(C)CCNC(C)=O)c2)c1 |
| 813 | 0.46 | 57.5 | 0.64 | 14 | CC(=O)NCCN(C)c1cccc(OCCCCCOc2cccc(N(C)CCNC(C)=O)c2)c1 |
| 40.7 | 0.42 | 3.98 | 0.57 | 10 | CC(=O)NCCN(C)c1cccc(OCCCCCCCCCCOc2cccc(N(C)CCNC(C)=O)c2)c1 |
| 36.3 | -0.04 | 741 | -0.09 | 0.05 | COc1cccc(N(CCCCCCN(CCNC(C)=O)c2cccc(OC)c2)CCNC(C)=O)c1 |
| 2090 | 0.26 | 20.4 | 0.33 | 102 | CC(=O)NCCN(C)c1cccc(OCCCOc2cccc(N(C)CCNC(C)=O)c2)c1 |
| 309 | 0.12 | 380 | 0.37 | 0.8 | COc1cccc(N(CCCCCCCCCCN(CCNC(C)=O)c2cccc(OC)c2)CCNC(C)=O)c1 |
| 158 | 0.49 | 14.5 | 0.54 | 11 | CC(=O)NCCN(C)c1cccc(OCCCCCCOc2ccccc2)c1 |
| 182 | 0.44 | 3.39 | 0.33 | 54 | CC(=O)NCCN(C)c1cccc(OCCCCCCOc2cccc(N(C)CCNC(C)=O)c2)c1 |
